From patent US4895589A, “Heterocyclic compounds” (Imperial Chemical Industries PLC, priority 1985, dated 1990)

Legend:
[1] = system: Tomato; details: TO, 4000 ppm, 2-3 weeks
Experimental: (§5) The compounds were tested for plant growth regulator activity against up to tweleve plant species for various growth effects relevant to plant growth regulation.
(§6) After spray, the plants were grown in a glasshouse with 25° C. day/22° C. night temperatures and supplementary lighting was supplied when necessary (from mercury vapour lamps), to provide a 16 hour photoperiod. The exception to this were the temperate cereals, wheat and barley, which were grown in 16° C. day 13° C. night temperatures
(§7) After 2-3 weeks in the glasshouse, depending on the time of year, the plants were visually assessed for morphological characteristics. Formulations blanks were used as controls to assess the Plants.

[2] = system: Rice; assay: Intermediate Retardant Test, rice; format: in vivo, Rice (Ishikari); details: Oryza sativa, 672 h, ~28 days, Table VII, read-out: Percentage Reduction in Height of Rice (Compared to formulation blank)
Experimental: (§1) Three species are involved in this test RICE, SPRING-BARLEY and APPLES. The variety and growth stages at spray are outlined in Table VI. Compounds were applied at 1000 ppm and 4000 ppm respectively (1 kg and 4 kg ha^-1 at a field volume of 1000 l/ha^-1) as an overall spray. This gives a foliar and root component in the test, i.e. this test will detect the activity of both root and foliar acting compounds. The rice was grown in 4" `paddy` pots, i.e. the roots and bottom of the stems are immersed in water under conditions corresponding to those in paddy fields. Spring barley and apples were grown in 4" pots. The plants were assessed for height to top-most ligule at approximately 28 days after treatment for spring barley and rice and for height to apex at approximately 28 days after the treatment for apples. In each case the result for the 1000 ppm and 4000 ppm test for each compound is compared to the height of the formulation blank in that test, presented as a percentage reduction in height compared to the formulation blank.
as §1, with “in Table XIV. Compounds were” for “in Table VI. Compounds were”, “that test, and presented as” for “that test, presented as”

[3] = system: Lettuce; details: LT, 4000 ppm, 2-3 weeks
Experimental: as §5, §6, §7

[4] = system: Agrostis tenius; details: AT, 4000 ppm, 2-3 weeks
Experimental: as §5, §6, §7

[5] = system: Dacrylis glomerata; details: DA, 4000 ppm, 2-3 weeks
Experimental: as §5, §6, §7

[6] = system: Vines; details: VN, 4000 ppm, 2-3 weeks
[7] = system: Barley; details: BR, 4000 ppm, 2-3 weeks
Experimental: as §5, §6, §7

[8] = system: Apples; assay: Intermediate Retardant Test, apples; format: in vivo, Apples (Red Delicious); details: 672 h, ~28 days, Table IX, read-out: Percentage Reduction in Height of Apples (Compared to formulation blank)
Experimental: as §1
as §1, with “in Table XIV. Compounds were” for “in Table VI. Compounds were”, “that test, and presented as” for “that test, presented as”

[9] = system: plant species of Whole Plant Screen (1) or (2); assay: Across screen comparison: total retardation relative to paclobutrazol (Whole Plant Screens (1) and (2)); format: in vivo; details: compounds of Table I, Table X
Text: The following Example is a general indicative comparison of compounds from EP No. 0052424 with compounds from the preferred class in the present invention. The compounds have not been side-by-side tested on this Example because of the large numbers involved but the retardant activity can be compared using a standard which has been on each test.
The compounds which are compared in this Example have been tested on one of two tests. These are the Whole Plant Screen (1) and Whole Plant Screen (2) the methods for which are described in Examples 17 and 18 respectively.
An across screen comparison between compounds is made by expressing the total retardation (ie. sum of retardation scores recorded for each species tested) caused by the compound as a percentage of the total retardation caused by the standard in that test. The standard chemical gives a measure of the performance of the test and environmental factors. By expressing the test compound activity as a percentage of the standard compound activity these factors can be eliminated . The same standard has been used in every test and this is paclobutrazol a proprietory growth regulator.

[10] = system: Cynosurus cristatus; details: CC, 4000 ppm, 2-3 weeks
Experimental: as §5, §6, §7

[11] = system: Soya; details: SY, 4000 ppm, 2-3 weeks
Experimental: as §5, §6, §7

[12] = system: Spring Barley; assay: Intermediate Retardant Test, spring barley; format: in vivo, Spring Barley (Atem/kym); details: Hordeum vulgare, 672 h, ~28 days, Table VIII, read-out: Percentage Reduction in Height of Spring Barley (Compared to formulation blank)
Experimental: as §1
as §1, with “in Table XIV. Compounds were” for “in Table VI. Compounds were”, “that test, and presented as” for “that test, presented as”

[13] = system: Wheat; details: WW, 4000 ppm, 2-3 weeks
Experimental: as §5, §6, §7

[14] = system: Rice; assay: Whole Plant Screen (2), rice; format: in vivo, Rice (Ishikari); details: RC, 4000 ppm, 2-6 weeks, Table V
Experimental: (§2) After 2-6 weeks in the glasshouse, depending on the time of year, the plants were visually assessed for morphological characteristics. Formulation blanks were used as controls to assess the plants.
(§3) Compound numbers 1, 5 and 7 (of the present invention) were tested against compounds A, B, C and D (compound Nos. 12, 2, 24 and 50 of Table 1 EP No. 0052424) on whole plant screen (2). The compounds were tested of plant growth regulator activity against five species and for various growth effects relevant to plant growth regulation. The structures are set out in FIG. 1.
(§4) The plant species used in this screen are presented in Table XII with the leaf stage at which they were sprayed Each chemical was applied at 4000 ppm (4 kg/ha in a 1000 l/ha field volume) using a tracksprayer and a SS8004E (Teejet) nozzle. […]

[15] = system: Barley; assay: Whole Plant Screen (2), barley; format: in vivo, Barley (Atem); details: BR, 4000 ppm, 2-6 weeks, Table V
Experimental: as §3, §4

[16] = system: Apple; assay: Whole Plant Screen (2), apple; format: in vivo, Apple (Red Delicious); details: Ap, 4000 ppm, 2-6 weeks, Table V
Experimental: as §2, §3, §4

[17] = system: Wheat; assay: Whole Plant Screen (2), wheat; format: in vivo, Wheat (Timmo); details: WW, 4000 ppm, 2-6 weeks, Table V
Experimental: Compound numbers 12-13, 16-17 and 19-20 were tested on an alternative whole plant screen (2). The compounds were tested for plant growth regulator activity against five species for various growth effects relevant to plant growth regulation.
The plant species used in this screen are presented in Table IV with the leaf stage at which they were sprayed. Each chemical was applied at 4000 ppm (4 kg/ha in a 1000 l/ha field volume) using a tracksprayer and a SS8004E (Teejet) nozzle. […]
After 2-6 weeks in the glasshouse, depending on the time of year, the plants were visually assessed for morphological characteristics. Formulation blanks were used as controls to assess the plants. […]

[18] = system: Maize; details: MZ, 4000 ppm, 2-3 weeks
Experimental: as §5, §6, §7

| Structure (SMILES) | Retardation score (1-3) with greening (G), apical damage (A), tillering/side shooting (T) [1] [G] | Percent reduction in rice plant height vs formulation blank at 1000 ppm [2] [%] | Percent reduction in rice plant height vs formulation blank at 4000 ppm [2] [%] | Retardation score (1-3) with greening (G), apical damage (A), tillering/side shooting (T) [3] | Retardation score (1-3) with greening (G), apical damage (A), tillering/side shooting (T) [5] | Retardation score (1-3) with greening (G), apical damage (A), tillering/side shooting (T) [6] | percent reduction in plant height vs formulation blank at 4000 ppm [8] [%] | Total Retardation expressed as a percentage of the total retardation caused by paclobutrazol [9] | Retardation score (1-3) with greening (G), apical damage (A), tillering/side shooting (T) [11] | height reduction vs blank at 1000 ppm [12] [%] | height reduction vs blank at 4000 ppm [12] [%] | Retardation score (1-3) with greening (G), apical damage (A), tillering/side shooting (T) [13] [GT] | I = Interligular or internodal length reduction [15] | A = Apical damage [16] | T = Tillering or side shooting [16] | percent reduction in plant height vs formulation blank at 1000 ppm [8] [%] | T = Tillering or side shooting [17] | also measured |
| --- | --- | --- | --- | --- | --- | --- | --- | --- | --- | --- | --- | --- | --- | --- | --- | --- | --- | --- |
| CCCC(C)C#CC(O)(Cn1cncn1)C(C)(C)C (stereo not drawn) [Compound 9, 2,2-dimethyl-3-hydroxy-3-(3-methyl-hex-1-yne-1-yl)-4-(1,2,4-triazol-1-yl)-butane] | 2 | 8.2 | 32 | 1 (10-30% retardation) | 2 (21-60% retardation) | 2GT | 10.8 | 73.9 % of paclobutrazol | 2GAT | 15.7 | 32.9 | 2 | – | – | – | – | – | Retardation score (1-3) with greening (G), apical damage (A), tillering/side shooting (T) [4]: 1 (10-30% retardation); Retardation score (1-3) with greening (G), apical damage (A), tillering/side shooting (T) [7]: 1 (10-30% retardation); Retardation score (1-3) with greening (G), apical damage (A), tillering/side shooting (T) [10]: 2 (21-60% retardation) |
| CC(C)(C)C(O)(C#CCC1CC1)Cn1cncn1 (stereo not drawn) [Compound 16, 2,2-Dimethyl-3-hydroxy-3-(3-cyclopropyl-prop-1-yne-lyl)-4-(1,2,4-triazol-1-yl)-butane] | – | 14 | 34 | – | – | – | 62.8 | 100.0 % of paclobutrazol | – | 11 | 24 | – | 3 (61-100%) | 2 (31-60%) | 2 (31-60%) | 31.8 | 1 (10-30%) | G = Greening effect [14]: 2 (31-60%); I = Interligular or internodal length reduction [14]: 3 (61-100%); R = Retardation [14]: 3 (61-100%); T = Tillering or side shooting [14]: 1 (10-30%); G = Greening effect [15]: 1 (10-30%); G = Greening effect [16]: 2 (31-60%) |
| CCCCC#CC(O)(Cn1cncn1)C(C)(C)CF (stereo not drawn) [Compound 17, 2,2-dimethyl-1-fluoro-3-hydroxy-3-(hex-1-yne-1-yl)-4-(1,2,4-triazole-1-yl)-butane] | – | – | 22 | – | – | – | 54.5 | 150.0 % of paclobutrazol | – | – | 24 | – | 2 (31-60%) | 3 (61-100%) | 2 (31-60%) | 9.9 | 1 (10-30%) | G = Greening effect [17]: 1 (10-30%) |
| CCCCCCC#CC(O)(Cn1cncn1)C(C)(C)C (stereo not drawn) [Compound 4, 2,2-dimethyl-3-hydroxy-3-(oct-1-yne-1-yl)-4-(1,2,4-triazol-1-yl)-butane] | 2 | – | 5.8 | 2 (21-60% retardation) | 1 (10-30% retardation) | 1G | 21 | – | 1G | 23.7 | 27.5 | 1 | – | – | – | 8.2 | – | Retardation score (1-3) with greening (G), apical damage (A), tillering/side shooting (T) [18]: 1G |
